What was measured:
BRD4 = BRD4 (Homo sapiens (Human), UniProt O60885); assay: TR-FRET in-vitro binding assay for BRD4; settings: 45 nM His-Brd4(44-477), acetyl-histone H4 (AcK 5, 8, 12, 16) peptide
How it was run: (§1)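 Eight-point compound dilutions, delivered in 90% DMSO, were tested in a 13.55 μL final reaction. Reactions ran 35 minutes at 30° C before TR-FRET measurement.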

K-562 = assay: Cell growth inhibition assay (CellTiter-Glo), K-562; format: cell-based, human; settings: K-562 cells, 4 days; for GI50: Homo sapiens, K562, 96 h, half-maximal growth inhibition; for K-562 TGI: total growth inhibition
How it was run: (§2)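 Proliferation and viability are quantified by CellTiter-Glo after four days of incubation with serially diluted compound (maximum 10 μM). Four-parameter curve fitting gives IC50 and TGI.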

CREBBP = CREBBP (Homo sapiens (Human), UniProt Q92793); assay: AlphaScreen in-vitro binding assay for CREBBP; settings: 324 nM His-CREBBP (1081-1197), acetyl-histone H4 (AcK 5, 8, 12) peptide
Sequence of CREBBP (Q92793 1081-1197): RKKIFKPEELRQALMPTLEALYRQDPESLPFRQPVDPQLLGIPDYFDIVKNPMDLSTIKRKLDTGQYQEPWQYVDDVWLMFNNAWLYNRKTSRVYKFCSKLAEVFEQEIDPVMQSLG
How it was run: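 IC50 values were derived by non-linear regression of percent inhibition across 8 compound concentrations. Protein was His-tagged CREBBP bromodomain (1081-1197), peptide acetyl-histone H4 (AcK 5, 8, 12), in HEPES pH 7.5 buffer. Read-out was AlphaScreen with Ni-chelate acceptor and streptavidin donor beads, 35 min at 30° C then 60 min at RT.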

MV-4-11 = assay: Cell growth inhibition assay (CellTiter-Glo), MV-4-11; format: cell-based, human; settings: MV-4-11 cells, 4 days; for GI50: Homo sapiens, MV4-11, 96 h, half-maximal growth inhibition; for MV-4-11 TGI: total growth inhibition
How it was run: as §2

THP-1 = assay: Cell growth inhibition assay (CellTiter-Glo), THP-1; format: cell-based, human; settings: THP-1 cells, 4 days; for GI50: Homo sapiens, 96 h, half-maximal growth inhibition; for THP-1 TGI: total growth inhibition
How it was run: as §2

BRD3 = BRD3 (Homo sapiens (Human), UniProt Q15059); assay: TR-FRET in-vitro binding assay for BRD3; settings: 45 nM His-Brd3(20-477), acetyl-histone H4 (AcK 5, 8, 12, 16) peptide
Sequence of BRD3 (Q15059 20-477): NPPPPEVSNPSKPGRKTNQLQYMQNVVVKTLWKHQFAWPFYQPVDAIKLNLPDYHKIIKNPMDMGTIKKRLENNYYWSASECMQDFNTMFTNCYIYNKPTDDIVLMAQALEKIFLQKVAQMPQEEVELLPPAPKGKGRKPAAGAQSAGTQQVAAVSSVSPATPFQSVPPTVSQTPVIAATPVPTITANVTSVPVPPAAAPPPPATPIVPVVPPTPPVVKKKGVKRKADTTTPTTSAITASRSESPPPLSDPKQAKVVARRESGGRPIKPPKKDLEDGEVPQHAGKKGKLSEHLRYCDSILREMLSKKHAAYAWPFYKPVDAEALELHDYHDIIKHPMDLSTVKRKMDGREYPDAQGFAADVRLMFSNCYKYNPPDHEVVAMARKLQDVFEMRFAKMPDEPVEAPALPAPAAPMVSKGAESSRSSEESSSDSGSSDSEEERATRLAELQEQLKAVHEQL
How it was run: as §1

Compound	IC50 (BRD4) [nM]	GI50 (K-562) [nM]	IC50 (CREBBP) [nM]	GI50 (MV-4-11) [nM]	GI50 (THP-1) [nM]	IC50 (BRD3) [nM]	K-562 TGI (K-562) [nM]	MV-4-11 TGI (MV-4-11) [nM]	THP-1 TGI (THP-1) [nM]
Cc1cc(N2C(=O)c3cc(C4CCOCC4)n(C)c3C2c2ccc(Cl)cc2)cn2c(C)nnc12 (stereo not drawn) [Example 121, 6-(4-chlorophenyl)-5-(3,8-dimethyl-[1,2,4]triazolo[4,3-a]pyridin-6-yl)-1-methyl-2-(tetrahydro-2H-pyran-4-yl)-5,6-dihydropyrrolo[3,4-b]pyrrol-4(1H)-one]	56	164	640	54.9	44.7	44	>10000	89.3	86.2
CCOC(=O)n1cc(C2CC2)c2c1C(c1ccc(Cl)cc1)N(c1cc(C)c3nnc(C)n3c1)C2=O (stereo not drawn) [Example 125, Ethyl 6-(4-chlorophenyl)-3-cyclopropyl-5-(3,8-dimethyl-[1,2,4]triazolo[4,3-a]pyridin-6-yl)-4-oxo-5,6-dihydropyrrolo[3,4-b]pyrrole-1(4H)-carboxylate]	15	115	13700	12.1	15	15	>10000	19.25	28.4
Cc1cn(C2CCN(C)C2=O)c2c1C(=O)N(c1cc(C)c3nnc(C)n3c1)C2c1ccc(Cl)cc1 (stereo not drawn) [Example 126, 6-(4-chlorophenyl)-5-(3,8-dimethyl-[1,2,4]triazolo[4,3-a]pyridin-6-yl)-3-methyl-1-(1-methyl-2-oxopyrrolidin-3-yl)-5,6-dihydropyrrolo[3,4-b]pyrrol-4(1H)-one]	43	628	12900	74.6	113	48	>10000	180	315.5
CNC(=O)Cn1cc(C)c2c1C(c1ccc(Cl)cc1)N(c1cc(C)c3nnc(C)n3c1)C2=O (stereo not drawn) [Example 127, 2-(6-(4-chlorophenyl)-5-(3,8-dimethyl-[1,2,4]triazolo[4,3-a]pyridin-6-yl)-3-methyl-4-oxo-5,6-dihydropyrrolo[3,4-b]pyrrol-1(4H)-yl)-N-methylacetamide]	85	2320	7500	412	824	81	>10000	640	1129
Cc1cn(CCN(C)C)c2c1C(=O)N(c1cc(C)c3nnc(C)n3c1)C2c1ccc(Cl)cc1 (stereo not drawn) [Example 128, 6-(4-chlorophenyl)-5-(3,8-dimethyl-[1,2,4]triazolo[4,3-a]pyridin-6-yl)-1-(2-(dimethylamino)ethyl)-3-methyl-5,6-dihydropyrrolo[3,4-b]pyrrol-4(1H)-one]	45	203	27600	39.5	37.7	46	>10000	62.9	105.1
Cc1cn(CC(=O)N(C)C)c2c1C(=O)N(c1cc(C)c3nnc(C)n3c1)C2c1ccc(Cl)cc1 (stereo not drawn) [Example 129, 2-(6-(4-chlorophenyl)-5-(3,8-dimethyl-[1,2,4]triazolo[4,3-a]pyridin-6-yl)-3-methyl-4-oxo-5,6-dihydropyrrolo[3,4-b]pyrrol-1(4H)-yl)-N,N-dimethylacetamide]	54	492	8100	96.3	188	58	>10000	143	439.5
Cc1cc(N2C(=O)c3c(C4CNC4)cn(C)c3C2c2ccc(Cl)cc2)nc2c1nnn2C (stereo not drawn) [Example 130, 3-(azetidin-3-yl)-6-(4-chlorophenyl)-5-(3,7-dimethyl-3H-[1,2,3]triazolo[4,5-b]pyridin-5-yl)-1-methyl-5,6-dihydropyrrolo[3,4-b]pyrrol-4(1H)-one]	12	76.3	12800	< 3	12.9	13	3500	6.21	31
Cc1cc(N2C(=O)c3ccn(C)c3C2c2ccc(Cl)cc2)nn2c(C)nnc12 (stereo not drawn) [Example 131, 6-(4-chlorophenyl)-5-(3,8-dimethyl-[1,2,4]triazolo[4,3-b]pyridazin-6-yl)-1-methyl-5,6-dihydropyrrolo[3,4-b]pyrrol-4(1H)-one]	33	67.1	> 37000	9.21	9.76	27	>10000	21.5	30.25
CNC(=O)c1cn(C)c2c1C(=O)N(c1cc(C)c3nnc(C(F)F)n3c1)C2c1ccc(Cl)cc1 (stereo not drawn) [Example 132, 6-(4-chlorophenyl)-5-(3-(difluoromethyl)-8-methyl-[1,2,4]triazolo[4,3-a]pyridin-6-yl)-N,1-dimethyl-4-oxo-1,4,5,6-tetrahydropyrrolo[3,4-b]pyrrole-3-carboxamide]	16	58.6	14100	9.57	10.1	23	>10000	23.15	26
CC(=O)Nc1cn(C)c2c1C(=O)N(c1cc(C)c3nnc(C(F)F)n3c1)C2c1ccc(Cl)cc1 (stereo not drawn) [Example 133, N-(6-(4-chlorophenyl)-5-(3-(difluoromethyl)-8-methyl-[1,2,4]triazolo[4,3-a]pyridin-6-yl)-1-methyl-4-oxo-1,4,5,6-tetrahydropyrrolo[3,4-b]pyrrol-3-yl)acetamide]	29	92.7	13900	24.6	29.9	32	>10000	49.7	74.25

Continued, in another order:

IC50 (BRD4) [nM]	GI50 (K-562) [nM]	IC50 (CREBBP) [nM]	GI50 (MV-4-11) [nM]	GI50 (THP-1) [nM]	IC50 (BRD3) [nM]	Compound	K-562 TGI (K-562) [nM]	MV-4-11 TGI (MV-4-11) [nM]	THP-1 TGI (THP-1) [nM]
< 11	25.4	1600	3.02	3.67	< 11	COc1ncccc1-c1c(C2CC2)c2c(n1C)C(c1ccc(Cl)cc1)N(c1cc(C)c3nnc(C)n3c1)C2=O (stereo not drawn) [Example 120, 6-(4-chlorophenyl)-3-cyclopropyl-5-(3,8-dimethyl-[1,2,4]triazolo[4,3-a]pyridin-6-yl)-2-(2-methoxypyridin-3-yl)-1-methyl-5,6-dihydropyrrolo[3,4-b]pyrrol-4(1H)-one]	>7000	5.053	5.503
12	41	4500	9.11	6.04	15	Cc1cc(N2C(=O)c3c(C4CC4)c(C)n(C)c3C2c2ccc(Cl)cc2)cn2c(C)nnc12 (stereo not drawn) [Example 122, 6-(4-chlorophenyl)-3-cyclopropyl-5-(3,8-dimethyl-[1,2,4]triazolo[4,3-a]pyridin-6-yl)-1,2-dimethyl-5,6-dihydropyrrolo[3,4-b]pyrrol-4(1H)-one]	>7000	12.97	11.93
< 11	37.5	2800	5.14	6.03	11	CCOC(=O)n1c(C2=CCOCC2)c(C)c2c1C(c1ccc(Cl)cc1)N(c1cc(C)c3nnc(C)n3c1)C2=O (stereo not drawn) [Example 123, Ethyl 6-(4-chlorophenyl)-2-(3,6-dihydro-2H-pyran-4-yl)-5-(3,8-dimethyl-[1,2,4]triazolo[4,3-a]pyridin-6-yl)-3-methyl-4-oxo-5,6-dihydropyrrolo[3,4-b]pyrrole-1(4H)-carboxylate]	>10000	9.695	13.5
11	41.6	1500	6.58	7.56	14	CCOC(=O)n1c(-c2cccnc2OC)c(C)c2c1C(c1ccc(Cl)cc1)N(c1cc(C)c3nnc(C)n3c1)C2=O (stereo not drawn) [Example 124, Ethyl 6-(4-chlorophenyl)-5-(3,8-dimethyl-[1,2,4]triazolo[4,3-a]pyridin-6-yl)-2-(2-methoxypyridin-3-yl)-3-methyl-4-oxo-5,6-dihydropyrrolo[3,4-b]pyrrole-1(4H)-carboxylate]	>10000	13.2	15.8
